Experimental data published in patent publication US9936622B2, “Apparatus for applying a pesticide to perennial crops” (Sumitomo Chemical Company, Limited, priority 2007, dated 2018).

Assays:
[1] = tested on: psyllids Creiis lituratus; assay: Field trial, subsurface application for the control of psyllids (lerp counts) on Eucalyptus dunni; assay type: in vivo; details: for Mean lerp count per 5 terminal leaflets: subsurface application
Description: (§1) Near Casino, northern New South Wales, Australia in the 2006-2007 season, chlothianidin as a suspension (200 g/L) in water at 0.5, 1.0 and 1.5 grams of active ingredient per tree (gai/tree) was applied to 2 year old Eucalyptus dunni trees for the control of psyllids Creiis lituratus during winter and chrysomelid leaf beetles during summer.
(§2) A single application below the soil surface was made by coulter 20-40 cm from the base of the stem of the trees and to a depth of 10-15 cm in 128 L of water per hectare. Psyllid lerp counts were taken 141 and 303 DAT (days after treatment). Tree height was measured at treatment and then at 303 DAT. Diameter at breast height was measured at 303 DAT.

[2] = tested on: 2 year old Eucalyptus dunni trees; assay: Field trial, effect of psyllid control on growth of E. dunni (tree height, diameter, wood volume); assay type: in vivo; details: for Mean increase in tree height: 0-303 DAT
Description: as §1, §2
The difference in volume between the untreated and the 1 gai/tree treatment can be calculated over 303 days

CN/C(=N\[N+](=O)[O-])NCc1cnc(Cl)s1 [Clothianidin, clothianidin]
Mean lerp count per 5 terminal leaflets ([1]; 0.5 gai/tree, Mar. 19, 2007 (303 DAT)): 3.50 B | Mean lerp count per 5 terminal leaflets ([1]; 0.5 gai/tree, Oct. 7, 2006 (141 DAT)): 2.33 b | Mean lerp count per 5 terminal leaflets ([1]; 1 gai/tree, Mar. 19, 2007 (303 DAT)): 2.06 B | Mean lerp count per 5 terminal leaflets ([1]; 1 gai/tree, Oct. 7, 2006 (141 DAT)): 0.71 c | Mean lerp count per 5 terminal leaflets ([1]; 1.5 gai/tree, Mar. 19, 2007 (303 DAT)): 0.69 B | Mean lerp count per 5 terminal leaflets ([1]; 1.5 gai/tree, Oct. 7, 2006 (141 DAT)): 0.58 c | psyllid lerp counts ([1]; sub-surface application at 0.5 to 1.5 gai/tree, up to 303 DAT): significantly reduced | Mean increase in tree height ([2]; 0.5 gai/tree): 198 ab cm | DBM (diameter at breast height, 1.3 m above ground level) ([2]; 0.5 gai/tree, 303 DAT): 5.44 cm | Mean tree height ([2]; 0.5 gai/tree, 303 DAT): 500 bc cm | Mean increase in tree height ([2]; 1 gai/tree): 228 a cm | DBM (diameter at breast height, 1.3 m above ground level) ([2]; 1 gai/tree, 303 DAT): 5.91 cm | Mean tree height ([2]; 1 gai/tree, 303 DAT): 526 b cm | Increase in wood volume ([2]; 1 gai/tree, 303 DAT, versus untreated): 8.5 m^3/ha | Mean tree diameter ([2]; 1 gai/tree, over 303 days): 5.91 cm | Mean tree height ([2]; 1 gai/tree, over 303 days): 5.26 m | Mean wood vol/ha ([2]; 1 gai/tree, over 303 days): 22.2 m^3 | Mean increase in tree height ([2]; 1.5 gai/tree): 229 a cm | DBM (diameter at breast height, 1.3 m above ground level) ([2]; 1.5 gai/tree, 303 DAT): 6.67 cm | Mean tree height ([2]; 1.5 gai/tree, 303 DAT): 594 a cm | growth of E. dunni ([2]; sub-surface application at 0.5 to 1.5 gai/tree, high psyllid pressure, up to 303 DAT): improved
